# Data published in patent US8809389B2, “Substituted alkynyl phenoxy compounds as new synergists in pesticidal compositions” (Endura S.p.A., priority 2009, dated 2014).
# Experiments:
# [1] = test system: P450 enzymes (oxidases) of pollen beetle homogenate; assay: Oxidase assay: 7-ethoxycoumarin O-deethylation inhibition in pollen beetle homogenate; assay type: biochemical, Meligethes aeneus; details: 3 μl of 10 mM compound, enzyme plus acetone = 100
# Experimental: The ability of the novel compositions comprising the synergists of Formula (I) to inhibit P450 enzymes, a major mechanism conferring resistance to xenobiotics, was measured using pollen beetle homogenate.
# Approximately 50 non-sexed adult pollen beetle from each population were homogenised on ice in 1 ml 0.1 M sodium phosphate buffer, pH 7.6, containing, 1 mM EDTA, 1 mM DTT, 1 mM PTU, 1 mM PMSF and centrifuged at 10 000×g for 10 min. The resulting supernatant was used as the enzyme source.
# The O-deethylation inhibition by compounds of Example 2 or 3 was measured using 7-ethoxycoumarin (7-EC) according to Ullrich and Weber (Ullrich V and Weber P, The O-dealkylation of 7-ethoxycoumarin by liver microsomes. Z Physiol Chem 353: 1171-1177 (1972)) and adapted to the microplate format as described by DeSousa (De Sousa G, Cuany A, Brun A, Amichot M, Rahmani R, Berge J B, A microfluorometric method for measuring ethoxycoumarin-O-deethylase activity on individual Drosophila melanogaster abdomens: interest for screening resistance in insect populations Analyt. Biochem 229: 86-91 (1995)). Briefly, 7-EC was dissolved in ethanol to make a 20 mM stock solution and diluted by the addition of 0.1 M, pH 7.8 sodium phosphate buffer to give a concentration of 0.5 mM. Fifty microliters of pollen beetle enzyme were added to separate wells of a microplate, followed by the addition of 3 μl 10 mM of either compounds of Example 2 or 3 or acetone only. After 10 min incubation in room temperature, 80 μl 0.5 mM 7-EC was added following by another 5 min at 30° C. The reaction initiated by the addition of 10 μl 9.6 mM NADPH in 0.1 M sodium phosphate, pH 7.8. Enzyme activity was measured in a Victor^2 1420 multilabel counter (Wallac, Milton Keynes, UK) for 60 min with readings taken every 5 min, using an excitation wavelength of 370 nm and an emission wavelength of 460 nm. All assays were performed in triplicate.
# The ability of the composition comprising the compounds of Examples 2 and 3 to inhibit oxidases derived from the 3 different pollen beetle populations is presented in Table 7.
# [2] = target: T1, purified resistance-associated esterase (E4) (Myzus persicae, UniProt P35501); assay: Esterase interference assay (indirect determination of esterase inhibition); assay type: biochemical; details: no esterase = 0%, uninhibited E4 = 100%
# T1 construct: 5 g of aphids (stored at −20° C.) were homogenised in 0.02 M phosphate buffer pH 7.0; from tissue; host or cells: whole Myzus persicae aphids, clone 794JZ; homogenate purified over G-25 and DEAE Sepharose Fast Flow
# T1 sequence (P35501 24-552): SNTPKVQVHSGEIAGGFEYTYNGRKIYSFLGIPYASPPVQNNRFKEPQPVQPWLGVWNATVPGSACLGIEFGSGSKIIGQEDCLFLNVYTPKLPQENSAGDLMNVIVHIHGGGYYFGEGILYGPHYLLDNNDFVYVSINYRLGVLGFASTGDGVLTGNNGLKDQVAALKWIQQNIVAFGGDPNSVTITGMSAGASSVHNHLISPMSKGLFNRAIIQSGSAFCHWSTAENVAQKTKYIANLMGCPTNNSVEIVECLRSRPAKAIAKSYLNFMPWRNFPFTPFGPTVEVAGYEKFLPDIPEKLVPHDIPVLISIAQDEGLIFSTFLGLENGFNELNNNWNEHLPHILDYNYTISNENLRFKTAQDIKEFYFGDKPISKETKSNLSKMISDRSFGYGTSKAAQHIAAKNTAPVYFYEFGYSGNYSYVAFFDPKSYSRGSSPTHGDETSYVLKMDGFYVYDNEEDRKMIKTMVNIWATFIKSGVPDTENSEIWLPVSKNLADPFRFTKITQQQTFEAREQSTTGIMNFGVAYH
# Source text: Measuring the in vitro inhibition is not straight forward, as synergists may bind to a site other than the active site.
# The esterase used was the well-characterised resistance associated esterase purified from M. persicae, E4, (aphid clone: 794JZ) as per Devonshire (1977) with some modifications(Devonshire A L, The properties of a carboxylesterase from the peach-potato aphid, Myzus persicae (Sulz.) and its role in conferring insecticide resistance. Biochem J 167: 675-683 (1977)). Briefly, 5 g of aphids (stored at −20° C.) were homogenised in 0.02 M phosphate buffer pH 7.0 and centrifuged at 20 000 g for 10 min. The supernatant was passed through a G-25 column using 0.02M Tris/HCl, pH 8.5 buffer. Unretarded fractions containing esterase activity were further chromatographed through DEAF Sepharose Fast Flow (Amersham Biosciences) and eluted with a linear 0-0.35 M NaCl gradient in 500 ml of Tris/HCl as above. Fractions containing carboxylesterase activity in the form of E4 were concentrated, desalted, and buffer exchanged to 0.02 M phosphate pH 7.0 for storage.
# Interactions of the purified resistance-associated esterase (E4) with Compound of Example 2, Compound of Example 3, Compound of Example 4, Compound of Example 9 and Compound of Example 11 were performed using the ‘esterase interference assay’, as described by Khot et al., with some modifications. Devonshire A L, The properties of a carboxylesterase from the peach-potato aphid, Myzus persicae (Sulz.) and its role in conferring insecticide resistance. Biochem J 167: 675-683 (1977)). Briefly, stock solutions of novel synergists (3 mM in acetone) were pre-incubated with pure E4, to give a final concentration of 0.03 mM, for 16 h at 4° C. Aliquots (15 μl ) of E4, E4+Compound of Example 2, E4+Compound of Example 3, E4+Compound of Example 4, E4+Compound of Example 9 and E4+Compound of Example 11 were incubated for 1 h with 60 μl of serial dilutions of azamethiphos in 0.02M phosphate buffer, pH 7, in separate wells of a NUNC microplate. Aliquots (25 p1) of house fly head homogenate (source of AChE) were added to each well and incubated for 15 minutes at room temperature. E4 in acetone and buffer only served as the positive and the negative controls respectively. AChE activity was measured at 405 nm using a Tmax kinetic microplate reader (Molecular Devices, Menlo Park, Calif.). Readings were taken automatically for 10 min at 10 s intervals. The rate (mOD min^−1) was calculated by the integrated software, Softmax Pro 4.6. All treatments were performed in triplicate.
# No added esterase is giving 0% esterase protection and uninhibited esterase (E4) is giving 100% protection.
# The materials and procedure as stated in Example 13, paragraphs 13.1, 13.1.2, 13.1.2.1 and 13.1.2.2. have been used and the following results have been obtained: […]
# [3] = test system: pollen beetle, Meligethes aeneus; assay: Discriminating dose bioassay: α-cypermethrin in mixture with synergist; assay type: in vivo; details: for % Mortality: 24 h
# Experimental: Two pyrethroid resistant populations originating from two different areas in Poland ‘Rogalin'and lebork’ were collected in July 2008. A putative susceptible population, UK population, was also collected in July 2008 in Hertfordshire, UK. All populations were collected from oilseed rape contained adults only and were kept at room temperature before assays were performed.
# Bioassays incorporating the compounds (Compound of Example 2 and Compound of Example 3) dissolved in acetone, were carried out using a diagnostic concentration of α-cypermethrin derived from the above full dose response bioassays in a mixture of 0.01 g L^−1 of the compounds. The concentration of α-cypermethrin used for the discriminating dose bioassays was 0.3 ppm α-cypermethrin for the two polish populations, Rogalin and Lebork and 0.03 ppm α-cypermethrin for UK population. Vials treated with the compounds only, dissolved in acetone and acetone only were used as controls. Ten to 15 replicates were used for each treatment depending on insect numbers within the population. Compounds concentrations chosen conferred no mortality in preliminary bioassays.
# Treated vials including the pollen beetles were stored in constant environment facilities at 18±2° C. and 16L: 8D. All bioassays were scored at an endpoint of 24 h after exposure to the insecticide. Insects incapable of coordinated movement (after gentle touching with a pencil brush if necessary) were scored as dead.
compound,measurement,setting,value
"CC#CCOc1ccc2c(c1)OCO2 [Example 2, 5-(but-2-ynyloxy)-benzo[1.3]dioxole]",Inhibition of 7-ethoxycoumarin O-deethylation (%),[1]; Lebork homogenate,−38.98%
same,Inhibition of 7-ethoxycoumarin O-deethylation (%),[1]; Rogalin homogenate,−11.25%
same,Inhibition of 7-ethoxycoumarin O-deethylation (%),[1]; UK population homogenate,−9.3%
same,Esterase protection (%) after pre-incubation with compound,"[2]; Table 2 (Example 13), 0.03 mM compound pre-incubated with E4 16 h at 4° C.",10.36%
same,Esterase protection (%) after pre-incubation with compound,"[2]; second 'TABLE 3' (Example 16), procedure as Example 13",10.35%
same,% Mortality,"[3]; Lebork, 0.3 ppm α-cypermethrin in mixture with 0.01 g L^−1 synergist",85.21%
same,Mortality,"[3]; Rogalin and Lebork, 0.3 ppm α-cypermethrin in mixture with 0.01 g L^−1 synergist",around 85%
same,% Mortality,"[3]; Rogalin, 0.3 ppm α-cypermethrin in mixture with 0.01 g L^−1 synergist",80.56%
same,% Mortality,"[3]; UK population, 0.03 ppm α-cypermethrin in mixture with 0.01 g L^−1 synergist",71.68%
same,Mortality with the compound only,"[3]; synergist only, without α-cypermethrin (data not shown)",No mortality
